{"source": "paper PMC8245078", "about": "“Development of novel benzofuran-isatin conjugates as potential antiproliferative agents with apoptosis inducing mechanism in Colon cancer” (Journal of Enzyme Inhibition and Medicinal Chemistry, 2021)", "assay_in_all_cases": "NCI single dose screening (10 µM)", "assay_type_in_all_cases": "cell-based", "key": {"UO-31": {"test_system": "UO-31", "settings": "Homo sapiens; UO-31, Renal cancer, single dose 10^−5 M; read-out: GI% (cell growth inhibition percentage)"}, "SF-268": {"test_system": "SF-268", "settings": "Homo sapiens; SF-268, CNS cancer, single dose 10^−5 M; read-out: GI% (cell growth inhibition percentage)"}, "LOX IMVI": {"test_system": "LOX IMVI", "settings": "Homo sapiens, Melanoma, single dose 10^−5 M, read-out: GI% (cell growth inhibition percentage)"}, "SN12C": {"test_system": "SN12C", "settings": "Homo sapiens, Renal cancer, single dose 10^−5 M, read-out: GI% (cell growth inhibition percentage)"}, "SR": {"test_system": "SR", "settings": "Homo sapiens, Leukaemia, single dose 10^−5 M, read-out: GI% (cell growth inhibition percentage)"}, "MALME-3M": {"test_system": "MALME-3M", "settings": "Homo sapiens; MALME-3M, Melanoma, single dose 10^−5 M; read-out: GI% (cell growth inhibition percentage)"}, "HL-60(TB)": {"test_system": "HL-60(TB)", "settings": "Homo sapiens; HL-60(TB), Leukaemia, single dose 10^−5 M; read-out: GI% (cell growth inhibition percentage)"}, "HOP-62": {"test_system": "HOP-62", "settings": "Homo sapiens; HOP-62, Non-small cell lung cancer, single dose 10^−5 M; read-out: GI% (cell growth inhibition percentage)"}, "BT-549": {"test_system": "BT-549", "settings": "Homo sapiens; BT-549, Breast cancer, single dose 10^−5 M; read-out: GI% (cell growth inhibition percentage)"}, "MCF7": {"test_system": "MCF7", "settings": "Homo sapiens; MCF7, Breast cancer, single dose 10^−5 M; read-out: GI% (cell growth inhibition percentage)"}, "K-562": {"test_system": "K-562", "settings": "Homo sapiens, K562; K-562, Leukaemia, single dose 10^−5 M; read-out: GI% (cell growth inhibition percentage)"}, "HCT-15": {"test_system": "HCT-15", "settings": "Homo sapiens; HCT-15, Colon cancer, single dose 10^−5 M; read-out: GI% (cell growth inhibition percentage)"}, "CCRF-CEM": {"test_system": "CCRF-CEM", "settings": "Homo sapiens, Leukaemia, single dose 10^−5 M, read-out: GI% (cell growth inhibition percentage)"}, "MDA-MB-231/ATCC": {"test_system": "MDA-MB-231/ATCC", "settings": "Homo sapiens; MDA-MB-231/ATCC, Breast cancer, single dose 10^−5 M; read-out: GI% (cell growth inhibition percentage)"}, "NCI/ADR-RES": {"test_system": "NCI/ADR-RES", "settings": "Homo sapiens, Ovarian cancer, single dose 10^−5 M, read-out: GI% (cell growth inhibition percentage)"}, "MDA-MB-435": {"test_system": "MDA-MB-435", "settings": "Homo sapiens; MDA-MB-435, Melanoma, single dose 10^−5 M; read-out: GI% (cell growth inhibition percentage)"}, "PC-3": {"test_system": "PC-3", "settings": "Homo sapiens; PC-3, Prostate cancer, single dose 10^−5 M; read-out: GI% (cell growth inhibition percentage)"}, "OVCAR-5": {"test_system": "OVCAR-5", "settings": "Homo sapiens; OVCAR-5, Ovarian cancer, single dose 10^−5 M; read-out: GI% (cell growth inhibition percentage)"}, "MOLT-4": {"test_system": "MOLT-4", "settings": "Homo sapiens; MOLT-4, Leukaemia, single dose 10^−5 M; read-out: GI% (cell growth inhibition percentage)"}, "786-0": {"test_system": "786-0", "settings": "Homo sapiens; 786-0, Renal cancer, single dose 10^−5 M; read-out: GI% (cell growth inhibition percentage)"}, "SF-295": {"test_system": "SF-295", "settings": "Homo sapiens; SF-295, CNS cancer, single dose 10^−5 M; read-out: GI% (cell growth inhibition percentage)"}, "SK-MEL-2": {"test_system": "SK-MEL-2", "settings": "Homo sapiens; SK-MEL-2, Melanoma, single dose 10^−5 M; read-out: GI% (cell growth inhibition percentage)"}, "SK-MEL-28": {"test_system": "SK-MEL-28", "settings": "Homo sapiens; SK-MEL-28, Melanoma, single dose 10^−5 M; read-out: GI% (cell growth inhibition percentage)"}, "HS 578 T": {"test_system": "HS 578 T", "settings": "Homo sapiens; HS 578 T, Breast cancer, single dose 10^−5 M; read-out: GI% (cell growth inhibition percentage)"}, "IGROV1": {"test_system": "IGROV1", "settings": "Homo sapiens, IGROV-1; IGROV1, Ovarian cancer, single dose 10^−5 M; read-out: GI% (cell growth inhibition percentage)"}, "A549/ATCC": {"test_system": "A549/ATCC", "settings": "Homo sapiens; A549/ATCC, Non-small cell lung cancer, single dose 10^−5 M; read-out: GI% (cell growth inhibition percentage)"}, "CAKI-1": {"test_system": "CAKI-1", "settings": "Homo sapiens; CAKI-1, Renal cancer, single dose 10^−5 M; read-out: GI% (cell growth inhibition percentage)"}, "TK-10": {"test_system": "TK-10", "settings": "Homo sapiens; TK-10, Renal cancer, single dose 10^−5 M; read-out: GI% (cell growth inhibition percentage)"}, "NCI-H460": {"test_system": "NCI-H460", "settings": "Homo sapiens; NCI-H460, Non-small cell lung cancer, single dose 10^−5 M; read-out: GI% (cell growth inhibition percentage)"}, "OVCAR-3": {"test_system": "OVCAR-3", "settings": "Homo sapiens; OVCAR-3, Ovarian cancer, single dose 10^−5 M; read-out: GI% (cell growth inhibition percentage)"}, "MDA-MB-468": {"test_system": "MDA-MB-468", "settings": "Homo sapiens; MDA-MB-468, Breast cancer, single dose 10^−5 M; read-out: GI% (cell growth inhibition percentage)"}, "HT-29": {"test_system": "HT-29", "settings": "Homo sapiens; HT-29, Colon cancer, single dose 10^−5 M; read-out: GI% (cell growth inhibition percentage)"}}, "data": [{"smiles": "Cc1c(C(=O)N/N=C2\\C(=O)N(C)c3ccccc32)oc2ccccc12", "note": "[Compound 7a]", "values": [{"measurement": "inhibition at 10 µM", "setting": "UO-31", "value": "< 10", "unit": "%"}, {"measurement": "inhibition at 10 µM", "setting": "SF-268", "value": "< 10", "unit": "%"}, {"measurement": "inhibition at 10 µM", "setting": "LOX IMVI", "value": "< 10", "unit": "%"}, {"measurement": "inhibition at 10 µM", "setting": "SN12C", "value": "< 10", "unit": "%"}, {"measurement": "inhibition at 10 µM", "setting": "SR", "value": "< 10", "unit": "%"}, {"measurement": "inhibition at 10 µM", "setting": "MALME-3M", "value": "< 10", "unit": "%"}, {"measurement": "inhibition at 10 µM", "setting": "HL-60(TB)", "value": "< 10", "unit": "%"}, {"measurement": "inhibition at 10 µM", "setting": "HOP-62", "value": "< 10", "unit": "%"}, {"measurement": "inhibition at 10 µM", "setting": "BT-549", "value": "< 10", "unit": "%"}, {"measurement": "inhibition at 10 µM", "setting": "MCF7", "value": 28.2, "unit": "%"}, {"measurement": "inhibition at 10 µM", "setting": "K-562", "value": "< 10", "unit": "%"}, {"measurement": "inhibition at 10 µM", "setting": "HCT-15", "value": "< 10", "unit": "%"}, {"measurement": "inhibition at 10 µM", "setting": "CCRF-CEM", "value": "< 10", "unit": "%"}, {"measurement": "inhibition at 10 µM", "setting": "MDA-MB-231/ATCC", "value": "< 10", "unit": "%"}, {"measurement": "inhibition at 10 µM", "setting": "NCI/ADR-RES", "value": "< 10", "unit": "%"}, {"measurement": "inhibition at 10 µM", "setting": "MDA-MB-435", "value": "< 10", "unit": "%"}, {"measurement": "inhibition at 10 µM", "setting": "PC-3", "value": "< 10", "unit": "%"}, {"measurement": "inhibition at 10 µM", "setting": "OVCAR-5", "value": "< 10", "unit": "%"}, {"measurement": "inhibition at 10 µM", "setting": "MOLT-4", "value": "< 10", "unit": "%"}, {"measurement": "inhibition at 10 µM", "setting": "786-0", "value": "< 10", "unit": "%"}, {"measurement": "inhibition at 10 µM", "setting": "SF-295", "value": 11.8, "unit": "%"}, {"measurement": "inhibition at 10 µM", "setting": "SK-MEL-2", "value": "< 10", "unit": "%"}, {"measurement": "inhibition at 10 µM", "setting": "SK-MEL-28", "value": "< 10", "unit": "%"}, {"measurement": "inhibition at 10 µM", "setting": "HS 578 T", "value": "< 10", "unit": "%"}, {"measurement": "inhibition at 10 µM", "setting": "IGROV1", "value": 32.8, "unit": "%"}, {"measurement": "inhibition at 10 µM", "setting": "A549/ATCC", "value": "< 10", "unit": "%"}, {"measurement": "inhibition at 10 µM", "setting": "CAKI-1", "value": 19.4, "unit": "%"}, {"measurement": "inhibition at 10 µM", "setting": "TK-10", "value": "< 10", "unit": "%"}, {"measurement": "inhibition at 10 µM", "setting": "NCI-H460", "value": "< 10", "unit": "%"}, {"measurement": "inhibition at 10 µM", "setting": "OVCAR-3", "value": "< 10", "unit": "%"}, {"measurement": "inhibition at 10 µM", "setting": "MDA-MB-468", "value": "< 10", "unit": "%"}, {"measurement": "inhibition at 10 µM", "setting": "HT-29", "value": "< 10", "unit": "%"}]}]}
